Columns and labels:
Experiment in all cases: Test D controlled growth environment herbicide test, pre- and postemergence
Type in all cases: in vivo
[1] = tested on: buckwheat, wild (wild buckwheat, Polygonum convolvulus)
How it was run: (§1)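 Rating is visual, 0–100 scale (100 = complete control), made against untreated plants 14–21 d after treatment in controlled growth conditions. Postemergence sprays went onto 1- to 4-leaf plants in peat medium; preemergence sprays onto silt loam after sowing; formulation included a surfactant.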

[2] = tested on: chamomile (scentless chamomile, Matricaria inodora)
How it was run: as §1

[3] = tested on: radish, wild (wild radish, Raphanus raphanistrum)
How it was run: as §1

[4] = tested on: mustard, wild (wild mustard, Sinapis arvensis)
How it was run: as §1

[5] = tested on: field poppy (Papaver rhoeas)
How it was run: as §1

[6] = tested on: canarygrass (Phalaris minor)
How it was run: as §1

[7] = tested on: oilseed rape (Brassica napus)
How it was run: as §1

[8] = tested on: wheat, spring (spring wheat, Triticum aestivum)
How it was run: as §1

[9] = tested on: Russian thistle (Salsola kali)
How it was run: as §1

[10] = tested on: oat, wild (wild oat, Avena fatua)
How it was run: as §1

[11] = tested on: bromegrass, downy (downy bromegrass, Bromus tectorum)
How it was run: as §1

[12] = tested on: bluegrass (annual bluegrass, Poa annua)
How it was run: as §1

[13] = tested on: field violet (Viola arvensis)
How it was run: as §1

[14] = Postemergence, 31 g ai/ha, scale 0 to 100 (0 no effect, 100 complete control)
[15] = Postemergence, 125 g ai/ha, visual rating on scale 0 (no effect) to 100 (complete control), 14 to 21 d
[16] = Postemergence, 250 g ai/ha, scale 0 to 100 (0 no effect, 100 complete control)
[17] = Preemergence, 62 g ai/ha, scale 0 to 100 (0 no effect, 100 complete control)
[18] = Preemergence, 125 g ai/ha, scale 0 to 100 (0 no effect, 100 complete control)
[19] = Preemergence, 250 g ai/ha, scale 0 to 100 (0 no effect, 100 complete control)
[20] = postemergence, 62 g ai/ha, scale 0 to 100, 0 no effect, 100 complete control

Cc1ccc2ccc(C)c(-c3c(O)c(C)nn(C)c3=O)c2c1 [Compound 60]
Buckwheat, Wild plant response rating [1, 14]: 90
Plant response rating, Buckwheat, Wild [1, 15]: 100
Plant response rating, Buckwheat, Wild [1, 16]: 100
Plant response rating (scale of 0 to 100), Buckwheat, Wild ([1]; Preemergence, 31 g ai/ha): 0
Plant response rating, Buckwheat, Wild [1, 17]: 25
Plant response rating, Buckwheat, Wild [1, 18]: 50
Plant response rating, Buckwheat, Wild [1, 19]: 60
Plant response rating, Buckwheat, Wild [1, 20]: 95
Chamomile plant response rating [2, 14]: 75
Plant response rating, Chamomile [2, 15]: 100
Plant response rating, Chamomile [2, 16]: 100
Plant response rating (scale of 0 to 100), Chamomile ([2]; Preemergence, 31 g ai/ha): 95
Plant response rating, Chamomile [2, 17]: 100
Plant response rating, Chamomile [2, 18]: 100
Plant response rating, Chamomile [2, 19]: 100
Plant response rating, Chamomile [2, 20]: 80
Radish, Wild plant response rating [3, 14]: 65
Plant response rating, Radish, Wild [3, 15]: 95
Plant response rating, Radish, Wild [3, 16]: 95
Plant response rating (scale of 0 to 100), Radish, Wild ([3]; Preemergence, 31 g ai/ha): 55
Plant response rating, Radish, Wild [3, 17]: 90
Plant response rating, Radish, Wild [3, 18]: 95
Plant response rating, Radish, Wild [3, 19]: 90
Plant response rating, Radish, Wild [3, 20]: 75
Mustard, Wild plant response rating [4, 14]: 75
Plant response rating, Mustard, Wild [4, 15]: 98
Plant response rating, Mustard, Wild [4, 16]: 100
Plant response rating (scale of 0 to 100), Mustard, Wild ([4]; Preemergence, 31 g ai/ha): 45
Plant response rating, Mustard, Wild [4, 17]: 70
Plant response rating, Mustard, Wild [4, 18]: 85
Plant response rating, Mustard, Wild [4, 19]: 90
Plant response rating, Mustard, Wild [4, 20]: 75
Field Poppy plant response rating [5, 14]: 60
Plant response rating, Field Poppy [5, 15]: 85
Plant response rating, Field Poppy [5, 16]: 100
Plant response rating (scale of 0 to 100), Field Poppy ([5]; Preemergence, 31 g ai/ha): 75
Plant response rating, Field Poppy [5, 17]: 100
Plant response rating, Field Poppy [5, 18]: 100
Plant response rating, Field Poppy [5, 19]: 100
Plant response rating, Field Poppy [5, 20]: 75
Canarygrass plant response rating [6, 14]: 80
Plant response rating, Canarygrass [6, 15]: 85
Plant response rating, Canarygrass [6, 16]: 90
Plant response rating (scale of 0 to 100), Canarygrass ([6]; Preemergence, 31 g ai/ha): 90
Plant response rating, Canarygrass [6, 17]: 95
Plant response rating, Canarygrass [6, 18]: 95
Plant response rating, Canarygrass [6, 19]: 100
Plant response rating, Canarygrass [6, 20]: 80
Oilseed Rape plant response rating [7, 14]: 65
Plant response rating, Oilseed Rape [7, 15]: 75
Plant response rating, Oilseed Rape [7, 16]: 80
Plant response rating (scale of 0 to 100), Oilseed Rape ([7]; Preemergence, 31 g ai/ha): 0
Plant response rating, Oilseed Rape [7, 17]: 15
Plant response rating, Oilseed Rape [7, 18]: 40
Plant response rating, Oilseed Rape [7, 19]: 80
Plant response rating, Oilseed Rape [7, 20]: 70
Wheat, Spring plant response rating [8, 14]: 30
Plant response rating, Wheat, Spring [8, 15]: 40
Plant response rating, Wheat, Spring [8, 16]: 55
Plant response rating (scale of 0 to 100), Wheat, Spring ([8]; Preemergence, 31 g ai/ha): 35
Plant response rating, Wheat, Spring [8, 17]: 55
Plant response rating, Wheat, Spring [8, 18]: 65
Plant response rating, Wheat, Spring [8, 19]: 75
Plant response rating, Wheat, Spring [8, 20]: 35
Russian Thistle plant response rating [9, 14]: 80
Plant response rating, Russian Thistle [9, 15]: 80
Plant response rating, Russian Thistle [9, 16]: 85
Plant response rating (scale of 0 to 100), Russian Thistle ([9]; Preemergence, 31 g ai/ha): 15
Plant response rating, Russian Thistle [9, 17]: 20
Plant response rating, Russian Thistle [9, 18]: 35
Plant response rating, Russian Thistle [9, 19]: 70
Plant response rating, Russian Thistle [9, 20]: 80
Oat, Wild plant response rating [10, 14]: 85
Plant response rating, Oat, Wild [10, 15]: 95
Plant response rating, Oat, Wild [10, 16]: 100
Plant response rating (scale of 0 to 100), Oat, Wild ([10]; Preemergence, 31 g ai/ha): 90
Plant response rating, Oat, Wild [10, 17]: 95
Plant response rating, Oat, Wild [10, 18]: 100
Plant response rating, Oat, Wild [10, 19]: 100
Plant response rating, Oat, Wild [10, 20]: 90
Bromegrass, Downy plant response rating [11, 14]: 30
Plant response rating, Bromegrass, Downy [11, 15]: 65
Plant response rating, Bromegrass, Downy [11, 16]: 80
Plant response rating (scale of 0 to 100), Bromegrass, Downy ([11]; Preemergence, 31 g ai/ha): 60
Plant response rating, Bromegrass, Downy [11, 17]: 90
Plant response rating, Bromegrass, Downy [11, 18]: 95
Plant response rating, Bromegrass, Downy [11, 19]: 98
Plant response rating, Bromegrass, Downy [11, 20]: 55
Bluegrass plant response rating [12, 14]: 15
Plant response rating, Bluegrass [12, 15]: 35
Plant response rating, Bluegrass [12, 16]: 60
Plant response rating (scale of 0 to 100), Bluegrass ([12]; Preemergence, 31 g ai/ha): 35
Plant response rating, Bluegrass [12, 17]: 45
Plant response rating, Bluegrass [12, 18]: 65
Plant response rating, Bluegrass [12, 19]: 80
Plant response rating, Bluegrass [12, 20]: 25
Field Violet plant response rating [13, 14]: 80
Plant response rating, Field Violet [13, 15]: 100
Plant response rating, Field Violet [13, 16]: 85
Plant response rating (scale of 0 to 100), Field Violet ([13]; Preemergence, 31 g ai/ha): 95
Plant response rating, Field Violet [13, 17]: 100
Plant response rating, Field Violet [13, 18]: 100
Plant response rating, Field Violet [13, 19]: 100
Plant response rating, Field Violet [13, 20]: 95

From patent US10597388B2, “Pyridazinone herbicides” (FMC CORPORATION, priority 2014, dated 2020)
